Data: ChEMBL document CHEMBL1158851, “Friedelane triterpenoids from Maytenus macrocarpa” (J Nat Prod, 1998)

How the values were obtained:
Assay type in all cases: functional, cell-based
SK-MEL-28 = test: Cytotoxicity against human SK-MEL-28 cells
P388 = test: Cytotoxicity against mouse P388 cells
A549 = test: Cytotoxicity against human A549 cells
HT-29 = test: Cytotoxicity against human HT-29 cells

Measured: IC50

C[C@H]1C(=O)CC(=O)[C@@H]2[C@]1(C)CC[C@H]1[C@@]2(C)CC[C@@]2(C)[C@@H]3CC(C)(C)CC[C@]3(CO)CC[C@]12C
> 10 µg/mL: all assays above

CC(=O)OC[C@]12CCC(C)(C)C[C@H]1[C@]1(C)CC[C@@]3(C)[C@@H]4C(=O)C=C(OC(C)=O)[C@H](C)[C@@]4(C)CC[C@@H]3[C@@]1(C)CC2
> 10 µg/mL: all assays above
